Experimental data: patent publication US20230092294A1, “COMPOSITIONS AND METHODS FOR POTENTIATING IMMUNE RESPONSE” (Kumquat Biosciences Inc., priority 2019, published 2023)

Columns and labels:
[1] = tested on: HER2-positive OVCAR-3 ovarian cancer cells; experiment: Additional CAR-T killing assay (Example 11); type: cell-based, human; settings: HER2 scFv-CD28-CD3z-CAR-T cells from Donor 1 or Donor 2, compound-treated 1h at 1, 3 or 10 μM; co-culture 2 h; vs DMSO; FIG. 5
Excerpt: HER2 scFv-CD28-CD3z-CAR-T (Creative Bio) lentiviral particles were generated via transfection of 293T cells using Lipofectamine 2000 transfection reagent (ThermoFisher) according to manufacturer's instructions Human CD3+ T cells were negatively selected from peripheral blood mononuclear cells (PBMCs) (Discovery Life Sciences) from two individual healthy donors (Donor 1, Donor 2) using EasySep Human T cell Isolation Kit (StemCell Technologies #17951) and subsequently activated at a concentration of 0.5×10^6 cells/mL with Human T Expander Dynabeads (Gibco) (Thermo Fisher Scientific #11141D) at a ratio of 1 bead per cell in CTS Optimizer T cell expansion serum free medium (SFM) (Thermo Fisher Scientific #A1048501) supplemented with recombinant human IL-7 (10 ng/mL) and recombinant human IL-15 (5 ng/mL) (Peprotech #200-02). […]
For the killing assay, HER2-positive OVCAR-3 (ATCC #HTB-161) ovarian cancer cells stably transduced with IncuCyte Nuclight Red Lentivirus (Essen Biosciences #4706) in OVCAR media (RPMI 1640+20% FBS, 1% Pen-Strep +0.01 mg/mL human insulin) were plated (1.5×10^4 cells/well) in 96-well flat-bottom plates and incubated at 37° C. to allow for overnight adherence to serve as target cells. […] Tumor cell death was quantified on a ZE5 flow cytometer (Bio-Rad).

[2] = tested on: HER-2 positive tumor line (OVCAR-3); experiment: CAR-T killing assay (Example 7); type: cell-based, human
Excerpt: HER-2 specific CAR-T cells (CAR-Ts) were generated by transducing primary human CD3+ T cells (Discovery Life Sciences) with a lentivirus expressing a chimeric antigen receptor specific to human HER2, as well as GFP (Creative Bio). Prior to transduction, T cells were stimulated overnight with anti-CD3 and anti-CD28 antibodies coated onto magnetic beads (Invitrogen) at a 1:1 bead-to-cell ratio. Four days after transduction, the beads were removed and the following day CAR-Ts were sorted based on GFP expression and expanded in hIL7 ([…]) (Peprotech) and hIL15 (5 ng/mL) (Peprotech) for an additional 8 days. […]
CAR-Ts were pretreated with 0.1% DMSO (vehicle control) or a PTPN22 inhibitor (Compound A) for 1-2.5 hours prior to co-culture with cell lines at indicated concentrations. […] Tumor killing was assessed by comparing DMSO-treated CAR-Ts to PTPN22 inhibitor-treated CAR-Ts using either flow cytometry or Incucyte imaged-based assessment of tumor cell viability, at various effector:target ratios. Percent killing was assessed by calculating the amount of viable cells at a given time point as compared to untreated tumor cells (spontaneous release, marked “No CAR-T” in FIG. 2), tumor cells treated with PTPN22 inhibitor, and tumor cells cultured with DMSO treated CAR-T cells as a control.

O=C(O)c1cc2c(C#Cc3cccc(C(F)(F)F)c3)c(-c3ccccc3)oc2cc1O [Compound A] was tested, and the “tumor cell killing activity of CAR-T cells” value [1] was “higher tumor cell killing activity”, the “tumor cell killing activity of CAR-T cells” value ([2]; HER-2 specific CAR-Ts pretreated 1-2.5 hours then washed, compared to control cells treated with DMSO, FIG. 2) was “higher tumor cell killing activity” and the “increase in cell killing” value ([2]; HER-2 specific CAR-Ts transiently pretreated 1-2.5 hours then washed, compared to DMSO control, FIG. 3) was ≥ 1.5 fold.
